Literature values, collected in patent US20230355643A1, “SOLVENT DELIVERY SYSTEM FOR TOPICAL DELIVERY OF ACTIVE AGENTS” (Timber Pharmaceuticals, Inc., priority 2019, published 2023).

Details: log10 of organic solvent (such as octanol)/aqueous solvent partition coefficient
In the case of `CN(C)CCC(c1ccc(Br)cc1)c1ccccn1` (stereo not drawn) [brompheniramine], the logP is given as 3.4. In the case of `C=C1/C(=C\C=C2/CCC[C@]3(C)[C@@H]([C@H](C)/C=C/[C@@H](O)C4CC4)CC[C@@H]23)C[C@@H](O)C[C@@H]1O` [calcipotriol], the logP is given as ~3.84. In the case of `CN(C)CCC(c1ccc(Cl)cc1)c1ccccn1` (stereo not drawn) [chlorpheniramine], the logP is listed as ~3.38. For `CN1CCC[C@@H]1CCO[C@](C)(c1ccccc1)c1ccc(Cl)cc1` [clemastine], the logP is listed as ~5.2. For `O=C(O)c1cc(-c2ccc(F)cc2F)ccc1O` [diflunisal], the logP is given as 4.44. In the case of `CC(C)(C)c1ccc(C(=O)CCCN2CCC(OC(c3ccccc3)c3ccccc3)CC2)cc1` [ebastine], the logP is given as 6.96. In the case of `Clc1ccc(COC(Cn2ccnc2)c2ccc(Cl)cc2Cl)cc1` (stereo not drawn) [econazole], the logP is listed as ~5.5. In the case of `Cc1ccc(-c2ncc(Cl)cc2-c2ccc(S(C)(=O)=O)cc2)cn1` [etoricoxib], the logP is given as ~3.7. In the case of `CC(C(=O)O)c1cccc(Oc2ccccc2)c1` (stereo not drawn) [fenoprofen], the logP is given as ~3.1. In the case of `CC(C(=O)O)c1ccc(-c2ccccc2)c(F)c1` (stereo not drawn) [flurbiprofen], the logP is given as ~4.16. For `COc1ccc2c(c1)c(CC(=O)O)c(C)n2C(=O)c1ccc(Cl)cc1` [indometocin], the logP is given as ~4.27. For `CC(C(=O)O)c1cccc(C(=O)c2ccccc2)c1` (stereo not drawn) [ketoprofen], the logP is given as ~3,12. In the case of `Cc1cccc(Nc2ccccc2C(=O)O)c1C` [mefenamic acid], the logP is listed as ~5.12. In the case of `Clc1ccc(COC(Cn2ccnc2)c2ccc(Cl)cc2Cl)c(Cl)c1` (stereo not drawn) [miconazole], the logP is given as ~6.1. In the case of `Clc1ccc(CO/N=C(\Cn2ccnc2)c2ccc(Cl)cc2Cl)c(Cl)c1` [oxiconazole], the logP is listed as ~5.84. For `CN1C(C(=O)Nc2ccccn2)=C(O)c2ccccc2S1(=O)=O` [piroxicam], the logP is listed as ~3.06. For `O=C(Oc1ccccc1C(=O)O)c1ccccc1O` [salsalate], the logP is given as ~3.44. In the case of `CCOC(=O)c1ccc(C#Cc2ccc3c(c2)C(C)(C)CCS3)nc1` [tazarotene, ethyl 6-[2-(4,4-dimethyl-2,3-dihydrothiochromen-6-yl)ethynyl]pyridine-3-carboxylate], the logP is listed as ~5.6. In the case of `Cc1onc(-c2ccccc2)c1-c1ccc(S(N)(=O)=O)cc1` [valdecoxib], the logP is given as ~3.32. In the case of ivermectin, the logP is given as ~5.83. In the case of texaphyrin, the logP is given as ~6.76.
